This is an account of results in ChEMBL document CHEMBL4043140, “Synthesis of different heterocycles-linked chalcone conjugates as cytotoxic agents and tubulin polymerization inhibitors” (Bioorg Med Chem, 2017).

One test deals with HCT-116. As to the kind of experiment: Antiproliferative activity against human HCT116 cells after 48 hrs by MTT assay. The class given is functional, cell-based. The settings on record: HCT-116, 48 h.
A further test deals with HCT-15. Put plainly: Antiproliferative activity against human HCT15 cells after 48 hrs by MTT assay. It counts as functional, cell-based. The settings on record: HCT-15, 48 h. For orientation: Tetrazolium dyes change colour on reduction, which living cells bring about.
Test [1] can be described thus: Antiproliferative activity against human U87 cells after 48 hrs by MTT assay. The settings on record: U-87 MG. The class given is functional, cell-based, U-87MG ATCC.
In the next test the test system is A549. As to the kind of experiment: Antiproliferative activity against human A549 cells after 48 hrs by MTT assay. The class given is functional, cell-based. The settings on record: A549, 48 h.
The next test concerns PC-3. As to the kind of experiment: Antiproliferative activity against human PC3 cells after 48 hrs by MTT assay. It counts as functional, cell-based. The settings on record: PC-3, 48 h.
For the next test, the system named is DU-145. Put plainly: Antiproliferative activity against human DU145 cells after 48 hrs by MTT assay. It counts as functional, cell-based. The settings on record: DU-145, 48 h.
Test [2] relates to NCI-H460. Put plainly: Antiproliferative activity against human NCI-H460 cells after 48 hrs by MTT assay. The class given is functional, cell-based. The settings on record: NCI-H460, 48 h.
Test [3] relates to NCI-H460. Put plainly: Induction of apoptosis in human NCI-H460 cells assessed as horse-shoe shaped nuclei at 2.5 to 10 uM after 24 hrs by DAPI staining-based fluorescence microscopic analysis. It counts as functional, cell-based.
The subject of test [4] is NCI-H460. As to the kind of experiment: Induction of reactive oxygen species generation in human NCI-H460 cells after 6 hrs in presence of NAC by DCFDA staining-based method. It counts as functional, cell-based.
The subject of test [5] is NCI-H460. Put plainly: Cell cycle arrest in human NCI-H460 cells assessed as accumulation at G2/M phase at 1.25 uM after 24 hrs by propidium iodide staining-based flow cytometry (reference value: 34.71%). It counts as functional. Background: A flow cytometer gives signals particle by particle.
Test [6] is described as follows: Inhibition of porcine brain tubulin polymerization after 1 hr in presence of GTP by fluorescence assay. The arrangement: species or system Sus scrofa.
Test [7] relates to NCI-H460. As to the kind of experiment: Cell cycle arrest in human NCI-H460 cells assessed as accumulation at G0/G1 phase at 5 uM after 24 hrs by propidium iodide staining-based flow cytometry (reference value: 49.17%). The class given is functional.
Test [8] deals with NCI-H460. Put plainly: Cell cycle arrest in human NCI-H460 cells assessed as accumulation at G0/G1 phase at 1.25 uM after 24 hrs by propidium iodide staining-based flow cytometry (reference value: 49.17%). The class given is functional.
For test [9], the system named is NCI-H460. As to the kind of experiment: Induction of morphological changes in human NCI-H460 cells assessed as cell shrinkage at 1.25 to 5 uM after 48 hrs by phase contrast microscopic analysis. It counts as functional, cell-based.
The subject of test [10] is NCI-H460. As to the kind of experiment: Induction of reactive oxygen species generation in human NCI-H460 cells after 6 hrs by DCFDA staining-based method. It counts as functional, cell-based.
The subject of test [11] is NCI-H460. As to the kind of experiment: Cell cycle arrest in human NCI-H460 cells assessed as accumulation at G2/M phase at 2.5 uM after 24 hrs by propidium iodide staining-based flow cytometry (reference value: 34.71%). The class given is functional.
The test system of test [12] is NCI-H460. As to the kind of experiment: Induction of morphological changes in human NCI-H460 cells assessed as […] deformation at 1.25 to 5 uM after 48 hrs by phase contrast microscopic analysis. It counts as functional, cell-based.
Test [13] concerns NCI-H460. Put plainly: Cell cycle arrest in human NCI-H460 cells assessed as accumulation at G2/M phase at 5 uM after 24 hrs by propidium iodide staining-based flow cytometry (reference value: 34.71%). It counts as functional.
For test [14], the system named is NCI-H460. Put plainly: Induction of apoptosis in human NCI-H460 cells assessed as reduction in viable cells at 1.25 to 5 uM after 48 hrs by phase contrast microscopic analysis. It counts as functional, cell-based.
Test [15] concerns NCI-H460. Put plainly: Cell cycle arrest in human NCI-H460 cells assessed as accumulation at G0/G1 phase at 2.5 uM after 24 hrs by propidium iodide staining-based flow cytometry (reference value: 49.17%). The class given is functional.
Test [16] concerns NCI-H460. Put plainly: Cell cycle arrest in human NCI-H460 cells assessed as accumulation at S phase at 5 uM after 24 hrs by propidium iodide staining-based flow cytometry (reference value: 15.55%). It counts as functional.
Test [17] concerns NCI-H460. Put plainly: Cell cycle arrest in human NCI-H460 cells assessed as accumulation at S phase at 1.25 uM after 24 hrs by propidium iodide staining-based flow cytometry (reference value: 15.55%). The class given is functional.
Test [18] has as its system NCI-H460. As to the kind of experiment: Cell cycle arrest in human NCI-H460 cells assessed as accumulation at S phase at 2.5 uM after 24 hrs by propidium iodide staining-based flow cytometry (reference value: 15.55%). The class given is functional.

Calls of active or inactive are those of the source. The calls are words filed in the database; no cut-off is given here.

Broadly, the IC50 is the concentration that inhibits the measured activity by half. In the case of `COc1cc(/C=C/C(=O)c2ccccc2OC)ccc1OCCCN1CC(C)OC(C)C1` (configuration not stated), the IC50 with HCT-116 is 6.48 µM; with HCT-15, 6.36 µM; in test [1], 5.03 µM; in the test on A549, 5.32 µM; with PC-3 it was over 20 µM; in the test with DU-145, 3.87 µM. The same compound showed an IC50 with NCI-H460 [2] of 8.1 µM.
Take `COc1ccc(C(=O)/C=C/c2ccc(OCCCN3CCCCC3)c(OC)c2)cc1`: the result in the test with NCI-H460 [3], with NCI-H460 [9], with NCI-H460 [12] and in the test with NCI-H460 [14] was Active. Besides, the outcome in the test with NCI-H460 [4] was inactive. The Activity in the test on NCI-H460 [5] was 39.3%; in the test with NCI-H460 [7] it was 42.8%; in the test on NCI-H460 [8] it was 47.5%; with NCI-H460 [10], “Dose-dependent effect”; with NCI-H460 [11], 42.88%; in the test with NCI-H460 [13], 48.85%. The Activity in the test with NCI-H460 [15] is given as 46.74%; in the test on NCI-H460 [16], 8.12%; in the test with NCI-H460 [17], 12.21%; in the test with NCI-H460 [18], 9.3%. Further, the IC50 in test [6] came to 9.66 µM; with HCT-116, 1.73 µM; in the test on HCT-15, 5.34 µM; in test [1] it was 6.3 µM; in the test with A549, 3.29 µM; with PC-3 it was 9.53 µM. Moreover, the IC50 amounted to 5.08 µM in the test with DU-145 and 1.48 µM with NCI-H460 [2].
As to `COc1cc(/C=C/C(=O)c2ccc(Cl)cc2)ccc1OCCCCN1CCCCC1`, the IC50 with HCT-116 is over 20 µM; in the test with HCT-15, 8.11 µM; in [1], 8.01 µM; in the test with A549, 8.99 µM; with PC-3, 6.84 µM; in the test with DU-145 it was 7.74 µM. In the test on NCI-H460 [2], this compound had an IC50 of 10.2 µM.
For the compound `COc1cc(/C=C/C(=O)c2ccc(Cl)cc2Cl)ccc1OCCCN1CCc2ccccc21`, the IC50 in the test on HCT-116 is 19.2 µM; in the test on HCT-15, over 20 µM; in [1], 19.8 µM; with A549 it was over 20 µM; in the test with PC-3, over 20 µM; in the test with DU-145, over 20 µM. This compound also displayed an IC50 in the test on NCI-H460 [2] of over 20 µM.
In the case of `COc1cc(/C=C/C(=O)c2ccc(Br)cc2)ccc1OCCCCN1CCCCC1`, the IC50 is over 20 µM in the test with HCT-116; 8.97 µM with HCT-15; 4.01 µM in [1]; 9.06 µM with A549; 7.54 µM with PC-3; over 20 µM in the test with DU-145. This compound returned a concentration for half-maximal inhibition (IC50) in the test on NCI-H460 [2] of over 20 µM.
Turning to `COc1ccc(C(=O)/C=C/c2ccc(OCCN3CCOCC3)c(OC)c2)cc1`, the IC50 is over 20 µM with HCT-116; 7.54 µM in the test on HCT-15; 7.09 µM in test [1]; 8.21 µM in the test on A549; 9.19 µM in the test with PC-3; 8.74 µM in the test on DU-145. The compound further showed a half-maximal inhibitory concentration (IC50) in the test with NCI-H460 [2] of 9.96 µM.
On to `COc1cc(/C=C/C(=O)c2ccc(Cl)cc2Cl)ccc1OCCCN1CC(C)OC(C)C1` (configuration not stated), for which the IC50 was over 20 µM in the test on HCT-116; over 20 µM with HCT-15; over 20 µM in test [1]; over 20 µM with A549; 8.87 µM in the test on PC-3; over 20 µM with DU-145. The same compound gave an IC50 in the test with NCI-H460 [2] of over 20 µM.
Regarding `COc1cc(/C=C/C(=O)c2ccc(Br)cc2)ccc1OCCN1CCOCC1`, the IC50 in the test with HCT-116 was over 20 µM; with HCT-15, over 20 µM; in [1], over 20 µM; in the test on A549 it was 12.1 µM; with PC-3, 8.89 µM; in the test on DU-145, 9.74 µM. This compound also displayed a 50% inhibitory concentration (IC50) with NCI-H460 [2] of over 20 µM.
Turning to `COc1cc(/C=C/C(=O)c2ccccc2O)ccc1OCCCN1CCCCC1`, the IC50 in the test on HCT-116 turned out to be 2.01 µM; with HCT-15, 3.24 µM; in test [1] it was 2.87 µM; in the test on A549 it was 3.13 µM; in the test with PC-3, 1.95 µM; with DU-145 it was 2.73 µM. For the same compound, inhibition in the test on NCI-H460 [2] was half-maximal at 1.63 µM (IC50).
Turning to `COc1cc(/C=C/C(=O)c2ccc(Cl)cc2)ccc1OCCCN1CCCc2ccccc21`, the IC50 in the test with HCT-116 was over 20 µM; in the test with HCT-15, over 20 µM; in test [1] it was 16.2 µM; in the test on A549 it was over 20 µM; in the test on PC-3 it was over 20 µM; in the test with DU-145 it was 18.1 µM. This compound showed an IC50 in the test on NCI-H460 [2] of over 20 µM.
For the compound `COc1cc(/C=C/C(=O)c2ccc(Cl)cc2Cl)ccc1OCCCCN1CCCCC1`, the IC50 in the test on HCT-116 was over 20 µM; in the test with HCT-15, over 20 µM; in [1], 6.09 µM; with A549 it was 9.48 µM; in the test with PC-3 it was 7.29 µM; with DU-145, 5.73 µM. This compound gave an IC50 in the test on NCI-H460 [2] of 16.3 µM.
Turning to `COc1ccc(/C=C\c2cc(OC)c(OC)c(OC)c2)cc1O` [COMBRETASTATIN A4], the IC50 in the test with HCT-116 worked out at 9.12 µM; with HCT-15, 8.87 µM; in test [1], 9.75 µM; with A549 it was 9.29 µM; in the test on PC-3, 3.53 µM; with DU-145, 0.28 µM. Also, the IC50 in the test with NCI-H460 [2] amounted to 0.048 µM.
Regarding `COc1cc(/C=C/C(=O)c2ccc(Br)cc2)ccc1OCCCN1CCCCC1`, the IC50 in the test with HCT-116 is over 20 µM; in the test with HCT-15 it was over 20 µM; in test [1], over 20 µM; with A549, 16.5 µM; in the test with PC-3 it was 8.93 µM; in the test on DU-145, 17.1 µM. Moreover, it took 8.16 µM to reach half-maximal inhibition in the test with NCI-H460 [2] (IC50).
